SMILES strings stand for the structures.

This is an account of results in patent publication US20210070748A1, “INHIBITORS OF BRUTONS TYROSINE KINASE” (Pharmacyclics LLC, priority 2015, published 2021).

Format in all cases: biochemical
The target of one assay is T1, JAK3 (Homo sapiens, UniProt P52333).
T1 sequence (P52333 1-1124): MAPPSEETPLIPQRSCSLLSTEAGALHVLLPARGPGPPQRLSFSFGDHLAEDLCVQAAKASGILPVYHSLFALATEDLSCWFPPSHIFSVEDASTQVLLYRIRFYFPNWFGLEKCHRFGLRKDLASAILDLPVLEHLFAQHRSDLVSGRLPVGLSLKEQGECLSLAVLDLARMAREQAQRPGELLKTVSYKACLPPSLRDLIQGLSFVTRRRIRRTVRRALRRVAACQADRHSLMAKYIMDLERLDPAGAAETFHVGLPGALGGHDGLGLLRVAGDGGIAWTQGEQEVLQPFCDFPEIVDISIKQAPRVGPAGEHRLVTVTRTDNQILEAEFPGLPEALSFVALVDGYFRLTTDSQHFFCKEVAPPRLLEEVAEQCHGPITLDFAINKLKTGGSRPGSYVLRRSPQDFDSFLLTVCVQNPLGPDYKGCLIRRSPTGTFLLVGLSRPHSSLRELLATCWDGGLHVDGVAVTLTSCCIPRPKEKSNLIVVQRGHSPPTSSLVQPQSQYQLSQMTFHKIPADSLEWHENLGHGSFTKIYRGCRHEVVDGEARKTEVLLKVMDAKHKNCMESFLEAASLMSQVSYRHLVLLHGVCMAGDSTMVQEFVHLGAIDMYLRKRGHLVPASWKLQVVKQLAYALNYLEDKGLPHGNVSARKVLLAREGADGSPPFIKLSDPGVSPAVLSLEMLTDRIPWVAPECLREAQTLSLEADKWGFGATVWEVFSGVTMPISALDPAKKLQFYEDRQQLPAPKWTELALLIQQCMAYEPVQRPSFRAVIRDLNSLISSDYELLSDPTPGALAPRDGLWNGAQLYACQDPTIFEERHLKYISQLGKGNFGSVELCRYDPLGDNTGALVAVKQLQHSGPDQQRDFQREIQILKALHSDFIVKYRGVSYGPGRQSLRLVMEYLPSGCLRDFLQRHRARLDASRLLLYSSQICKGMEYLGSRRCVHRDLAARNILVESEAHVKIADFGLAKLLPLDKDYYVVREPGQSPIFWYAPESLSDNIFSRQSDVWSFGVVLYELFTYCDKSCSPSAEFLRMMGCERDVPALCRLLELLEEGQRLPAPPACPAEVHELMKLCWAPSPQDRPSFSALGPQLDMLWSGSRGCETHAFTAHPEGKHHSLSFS
Briefly: Inhibition of a panel of kinases, in vitro HotSpot kinase assay: JAK3. The settings on record: D-compounds panel data; 1 μM ATP; read-out: IC50 JAK3.

The target in a further assay is SRC (Homo sapiens, UniProt P12931). Briefly: Inhibition of a panel of kinases, in vitro HotSpot kinase assay: SRC. The settings on record: D-compounds panel data; 1 μM ATP. As to the method: (§1) The degree of inhibition of a panel of kinases is determined using the in vitro HotSpot kinase assay (purified enzymes, ^33P-ATP, an appropriate substrate and 1 μM ATP).
The target in a further assay is T2, BTK-WT (Homo sapiens, UniProt Q06187).
T2 construct: purified from insect cells as a full-length construct containing an N-terminal 6X-His tag; His6 (N); made in house; host or cells: insect cells (baculovirus Sf21 in Method B)
The assay is described as follows: Btk in vitro inhibitory activity (one of Method A TR-FRET, Method B electrophoretic mobility shift, Method C radiometric filter binding). The settings on record: D-compounds panel data; read-out: IC50 BTK-WT.

Another assay addresses EGFR (Homo sapiens, UniProt P00533). The assay is described as follows: Inhibition of a panel of kinases, in vitro HotSpot kinase assay: EGFR. The following applies: D-compounds panel data; 1 μM ATP. The procedure: as §1

SRC, sequence (P12931 whole entry): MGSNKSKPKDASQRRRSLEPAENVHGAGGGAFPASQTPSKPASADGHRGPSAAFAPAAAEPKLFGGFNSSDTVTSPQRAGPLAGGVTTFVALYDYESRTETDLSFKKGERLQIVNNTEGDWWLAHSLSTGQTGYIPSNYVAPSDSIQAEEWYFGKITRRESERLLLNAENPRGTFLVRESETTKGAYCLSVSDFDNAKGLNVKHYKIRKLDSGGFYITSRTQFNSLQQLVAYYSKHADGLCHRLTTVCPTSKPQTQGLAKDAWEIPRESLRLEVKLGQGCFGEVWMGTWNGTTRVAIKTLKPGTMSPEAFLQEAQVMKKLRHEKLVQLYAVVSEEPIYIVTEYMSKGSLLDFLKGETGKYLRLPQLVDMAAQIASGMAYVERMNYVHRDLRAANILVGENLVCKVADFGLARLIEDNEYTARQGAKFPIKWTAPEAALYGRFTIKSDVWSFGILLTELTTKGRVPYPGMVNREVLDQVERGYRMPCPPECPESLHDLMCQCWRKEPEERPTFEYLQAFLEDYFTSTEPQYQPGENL
T2 sequence (Q06187 whole entry): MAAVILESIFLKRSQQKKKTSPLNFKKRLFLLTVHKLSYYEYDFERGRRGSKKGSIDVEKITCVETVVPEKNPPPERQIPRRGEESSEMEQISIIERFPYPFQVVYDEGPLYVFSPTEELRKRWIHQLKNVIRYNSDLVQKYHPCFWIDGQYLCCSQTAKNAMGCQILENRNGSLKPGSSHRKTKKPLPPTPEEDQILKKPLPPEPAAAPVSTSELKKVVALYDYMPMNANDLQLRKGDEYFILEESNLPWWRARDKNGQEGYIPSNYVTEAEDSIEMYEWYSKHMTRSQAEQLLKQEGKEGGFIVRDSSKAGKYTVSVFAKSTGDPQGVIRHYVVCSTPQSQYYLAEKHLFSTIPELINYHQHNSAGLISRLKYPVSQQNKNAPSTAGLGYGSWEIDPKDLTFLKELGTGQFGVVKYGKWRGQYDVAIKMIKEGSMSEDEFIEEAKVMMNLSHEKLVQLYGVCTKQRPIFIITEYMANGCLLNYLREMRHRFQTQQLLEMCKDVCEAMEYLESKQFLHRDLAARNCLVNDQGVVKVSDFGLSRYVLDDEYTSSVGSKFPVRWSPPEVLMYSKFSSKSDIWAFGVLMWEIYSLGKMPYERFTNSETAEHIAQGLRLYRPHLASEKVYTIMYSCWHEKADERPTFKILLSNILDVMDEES
EGFR, sequence (P00533 25-1210): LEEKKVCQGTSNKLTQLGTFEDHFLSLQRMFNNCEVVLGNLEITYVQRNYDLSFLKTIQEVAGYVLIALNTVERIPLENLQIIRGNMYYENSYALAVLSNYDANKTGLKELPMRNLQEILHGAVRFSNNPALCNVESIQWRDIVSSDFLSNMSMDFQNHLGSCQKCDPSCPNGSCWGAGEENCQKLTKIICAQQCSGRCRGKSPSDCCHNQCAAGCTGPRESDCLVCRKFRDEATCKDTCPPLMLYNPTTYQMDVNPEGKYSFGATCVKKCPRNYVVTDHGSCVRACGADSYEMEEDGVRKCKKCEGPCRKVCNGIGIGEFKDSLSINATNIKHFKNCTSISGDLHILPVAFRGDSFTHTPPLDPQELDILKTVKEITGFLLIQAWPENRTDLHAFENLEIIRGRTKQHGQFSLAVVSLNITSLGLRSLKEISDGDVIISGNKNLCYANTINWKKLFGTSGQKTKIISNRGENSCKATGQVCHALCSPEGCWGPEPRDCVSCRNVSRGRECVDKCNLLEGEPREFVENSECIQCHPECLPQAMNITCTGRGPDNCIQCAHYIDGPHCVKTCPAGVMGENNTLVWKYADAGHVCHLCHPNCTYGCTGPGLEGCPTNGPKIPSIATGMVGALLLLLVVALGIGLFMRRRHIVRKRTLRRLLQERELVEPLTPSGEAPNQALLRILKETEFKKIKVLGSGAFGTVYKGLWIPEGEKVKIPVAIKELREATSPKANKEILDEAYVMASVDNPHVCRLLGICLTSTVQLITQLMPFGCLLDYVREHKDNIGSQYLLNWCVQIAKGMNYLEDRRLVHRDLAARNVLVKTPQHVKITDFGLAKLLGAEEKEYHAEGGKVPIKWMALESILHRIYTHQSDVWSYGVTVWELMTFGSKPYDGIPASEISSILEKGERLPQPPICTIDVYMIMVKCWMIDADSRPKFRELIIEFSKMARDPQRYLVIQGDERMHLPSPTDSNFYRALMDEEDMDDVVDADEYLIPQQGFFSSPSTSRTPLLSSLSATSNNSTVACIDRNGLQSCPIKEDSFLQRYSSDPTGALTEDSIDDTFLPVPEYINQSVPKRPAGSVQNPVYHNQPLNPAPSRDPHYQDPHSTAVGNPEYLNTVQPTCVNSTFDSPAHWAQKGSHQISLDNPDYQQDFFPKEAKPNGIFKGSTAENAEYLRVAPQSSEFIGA

Regarding `C[C@@H]1[C@H](NC(=O)c2ccc(C3CC3)nc2)CCCN1c1cnc(C(N)=O)c(Nc2ccc(N3CCN(C)CC3)cc2)n1` [Example D-203, 5-[(2R,3R)-3-(6-cyclopropylpyridine-3-amido)-2-methylpiperidin-1-yl]-3-{[4-(4-methylpiperazin-1-yl)phenyl]amino}pyrazine-2-carboxamide], the IC50 (usually the midpoint of a concentration-inhibition curve) was 1 to 10 µM on JAK3, 0.01 to 0.1 µM against SRC, at most 0.01 µM at BTK-WT and 0.1 to 1 µM against EGFR.

In the case of `C[C@@H]1[C@H](NC(=O)c2ccc(C3CC3)cc2)CCCN1c1cnc(C(N)=O)c(Nc2cnn(C3CCN(C)CC3)c2)n1` [Example D-185, 5-[(2R,3R)-3-(4-cyclopropylbenzamido)-2-methylpiperidin-1-yl]-3-{[1-(1-methylpiperidin-4-yl)-1H-pyrazol-4-yl]amino}pyrazine-2-carboxamide], the IC50 on JAK3 is 1 to 10 µM; at SRC, 0.01 to 0.1 µM; on BTK-WT it was at most 0.01 µM; against EGFR, 0.1 to 1 µM.

On to `C[C@@H]1[C@H](NC(=O)N(C)C)CCCN1c1cnc(C(N)=O)c(Nc2ccc(N3CCN(C)CC3)cn2)n1` [Example D-180, 5-[(2R,3R)-3-[(dimethylcarbamoyl)amino]-2-methylpiperidin-1-yl]-3-{[5-(4-methylpiperazin-1-yl)pyridin-2-yl]amino}pyrazine-2-carboxamide], for which the IC50 at JAK3 was over 10 µM; at SRC, over 10 µM; at BTK-WT it was 0.1 to 1 µM; against EGFR it was 1 to 10 µM.

`C[C@@H]1[C@H](NC(=O)c2ncc(C3CC3)cn2)CCCN1c1cnc(C(N)=O)c(Nc2cnn(C)c2)n1` [Example D-198, 5-[(2R,3R)-3-(5-cyclopropylpyrimidine-2-amido)-2-methylpiperidin-1-yl]-3-[(1-methyl-1H-pyrazol-4-yl)amino]pyrazine-2-carboxamide]: the IC50 on JAK3 was 0.1 to 1 µM; on SRC, 0.01 to 0.1 µM; at BTK-WT it was at most 0.01 µM; on EGFR it was 1 to 10 µM.

Consider `C[C@@H]1[C@H](NC(=O)c2cnc(C(C)(C)C)s2)CCCN1c1cnc(C(N)=O)c(Nc2cnn(C)c2)n1` [Example D-239, 5-[(2R,3R)-3-(2-tert-butyl-1,3-thiazole-5-amido)-2-methylpiperidin-1-yl]-3-[(1-methyl-1H-pyrazol-4-yl)amino]pyrazine-2-carboxamide], for which the 50% inhibitory concentration (IC50) was 0.1 to 1 µM on JAK3, 0.01 to 0.1 µM against SRC, at most 0.01 µM at BTK-WT and 0.1 to 1 µM against EGFR.

Regarding `CC(C)c1ccc(S(=O)(=O)N[C@@H]2CCCN(c3cnc(C(N)=O)c(Nc4cnn(C)c4)n3)[C@@H]2C)cc1` [Example D-220, 3-[(1-methyl-1H-pyrazol-4-yl)amino]-5-[(2R,3R)-2-methyl-3-[4-(propan-2-yl)benzenesulfonamido]piperidin-1-yl]pyrazine-2-carboxamide], the IC50 is 1 to 10 µM on JAK3, 1 to 10 µM against SRC, 1 to 10 µM at BTK-WT and over 10 µM against EGFR.

With `Cn1cc(Nc2nc(N3CCC[C@@H](NC(=O)c4ccc(C5CC5)cc4)C3)cnc2C(N)=O)cn1` [Example D-191, 5-[(3R)-3-(4-cyclopropylbenzamido)piperidin-1-yl]-3-[(1-methyl-1H-pyrazol-4-yl)amino]pyrazine-2-carboxamide], the half-inhibitory concentration (IC50) is 1 to 10 µM on JAK3, 0.1 to 1 µM against SRC, 0.01 to 0.1 µM at BTK-WT and over 10 µM at EGFR.

Take `C[C@@H]1[C@H](NC(=O)c2ccc3scnc3c2)CCCN1c1cnc(C(N)=O)c(Nc2ccc(N3CCN(C)CC3)cc2)n1` [Example D-226, N-[(2R,3R)-1-(5-carbamoyl-6-{[4-(4-methylpiperazin-1-yl)phenyl]amino}pyrazin-2-yl)-2-methylpiperidin-3-yl]-1,3-benzothiazole-5-carboxamide]: the IC50 was 0.1 to 1 µM at JAK3, at most 0.01 µM against SRC, at most 0.01 µM on BTK-WT and 0.1 to 1 µM on EGFR.

Take `Cc1cc(Nc2nc(N3CCC[C@H](c4ncc(-c5ccccc5)[nH]4)C3)cnc2C(N)=O)sn1` [Example D-172, 3-[(3-methyl-1,2-thiazol-5-yl)amino]-5-[(3S)-3-(5-phenyl-1H-imidazol-2-yl)piperidin-1-yl]pyrazine-2-carboxamide]: the IC50 is 0.1 to 1 µM on JAK3, 0.1 to 1 µM at SRC, 0.01 to 0.1 µM at BTK-WT and 0.01 to 0.1 µM against EGFR.

Regarding `C[C@@H]1[C@H](NC(=O)c2ccc(C3(O)CCCC3)cc2)CCCN1c1cnc(C(N)=O)c(Nc2cnn(C)c2)n1` [Example D-212, 5-[(2R,3R)-3-[4-(1-hydroxycyclopentyl)benzamido]-2-methylpiperidin-1-yl]-3-[(1-methyl-1H-pyrazol-4-yl)amino]pyrazine-2-carboxamide], the IC50 was 0.1 to 1 µM on JAK3, 0.01 to 0.1 µM against SRC, at most 0.01 µM at BTK-WT and 1 to 10 µM on EGFR.

As to `C[C@@H]1[C@H](NC(=O)c2ccc(C(C)(C)O)cc2)CCCN1c1cnc(C(N)=O)c(Nc2cnn(C)c2)n1` [Example D-194, 5-[(2R,3R)-3-[4-(2-hydroxypropan-2-yl)benzamido]-2-methylpiperidin-1-yl]-3-[(1-methyl-1H-pyrazol-4-yl)amino]pyrazine-2-carboxamide], the IC50 at JAK3 is 1 to 10 µM; on SRC, 0.1 to 1 µM; at BTK-WT, at most 0.01 µM; on EGFR it was 1 to 10 µM.

On to `Cc1cc(Nc2nc(N3CCC[C@@H](c4ncc(-c5ccc(C6CC6)cc5)[nH]4)[C@H]3C)cnc2C(N)=O)sn1` [Example D-186, 5-[(2R,3R)-3-[5-(4-cyclopropylphenyl)-1H-imidazol-2-yl]-2-methylpiperidin-1-yl]-3-[(3-methyl-1,2-thiazol-5-yl)amino]pyrazine-2-carboxamide], for which the IC50 was 1 to 10 µM at JAK3, 0.1 to 1 µM on SRC, 0.01 to 0.1 µM on BTK-WT and 1 to 10 µM against EGFR.

For the molecule `Cc1cc(Nc2nc(N3CCC[C@@H](NC(=O)N4Cc5ccccc5C4=O)C3)cnc2C(N)=O)sn1` [Example D-15, N-[(3R)-1-{5-carbamoyl-6-[(3-methyl-1,2-thiazol-5-yl)amino]pyrazin-2-yl}piperidin-3-yl]-1-oxo-2,3-dihydro-1H-isoindole-2-carboxamide], the 50% inhibitory concentration (IC50) is 1 to 10 µM at JAK3, 0.01 to 0.1 µM against SRC, at most 0.01 µM on BTK-WT and 0.1 to 1 µM against EGFR.

For the molecule `C[C@@H]1[C@H](NC(=O)c2ccc3c(c2)OC(F)(F)O3)CCCN1c1cnc(C(N)=O)c(Nc2cnn(C)c2)n1` [Example D-216, 5-[(2R,3R)-3-(2,2-difluoro-2H-1,3-benzodioxole-5-amido)-2-methylpiperidin-1-yl]-3-[(1-methyl-1H-pyrazol-4-yl)amino]pyrazine-2-carboxamide], the IC50 at JAK3 is 0.1 to 1 µM; against SRC, 0.01 to 0.1 µM; at BTK-WT, at most 0.01 µM; on EGFR it was 1 to 10 µM.

Take `CC(C)c1ccc(C(=O)N[C@@H]2CCCN(c3cnc(C(N)=O)c(Nc4cnn(C)c4)n3)[C@@H]2C)cc1` [Example D-197, 3-[(1-methyl-1H-pyrazol-4-yl)amino]-5-[(2R,3R)-2-methyl-3-[4-(propan-2-yl)benzamido]piperidin-1-yl]pyrazine-2-carboxamide]: the IC50 at JAK3 was 1 to 10 µM; against SRC it was 0.1 to 1 µM; at BTK-WT, at most 0.01 µM; on EGFR, 1 to 10 µM.

On to `C[C@@H]1[C@H](NC(=O)c2ccc(C(O)(C(F)(F)F)C(F)(F)F)cc2)CCCN1c1cnc(C(N)=O)c(Nc2cnn(C)c2)n1` [Example D-240, 5-[(2R,3R)-3-[4-(1,1,1,3,3,3-hexafluoro-2-hydroxypropan-2-yl)benzamido]-2-methylpiperidin-1-yl]-3-[(1-methyl-1H-pyrazol-4-yl)amino]pyrazine-2-carboxamide], for which the IC50 was 1 to 10 µM on JAK3, 0.1 to 1 µM on SRC, at most 0.01 µM on BTK-WT and 0.1 to 1 µM against EGFR.
